Here are results for 17 compounds from patent US7649000B2, “Selective dipeptide inhibitors of kallikrein” (Vantia Limited, priority 2002, dated 2010).

One may read the pKi as the Ki on a negative log10 scale, so that one unit is a factor of ten. A higher pKi goes with a low Ki.

Type in all cases: biochemical
One test has as its target T1, Human plasma kallikrein (Homo sapiens, UniProt P03952).
T1 construct: purchased Callbiochem (Calbiochem)
Put plainly: Determination of the inhibition constant Ki for plasma kallikrein (chromogenic substrate S-2302, Dixon plot). The note with it: substrate S-2302, 37° C. The protocol:
Determination of the Inhibition Constant Ki for Plasma Kallikrein
(§1) Inhibition of plasma kallikrein activity in vitro was determined using standard published methods (see e.g. Johansen et al., Int. J. Tiss. Reac. 1986, 8, 185; Shori et al., Biochem. Pharmacol., 1992, 43, 1209; Stüjrzebecher et al., Biol. Chem. Hoppe-Seyler, 1992, 373, 1025). Human plasma kallikrein (Callbiochem) was incubated at 37° C. with three different concentrations of the chromogenic substrate S-2302 (Chromogenix AB) and various concentrations of the test compound. Residual enzyme activity (initial rate of reaction) was determined by measuring the change in optical absorbance at 405 nm and the inhibitory constant Ki for the test compound as determined from a Dixon plot (Dixon, Biochem. J., 1953, 55, 170).

A further test addresses Human Tissue Kallikrein (Homo sapiens, UniProt P06870). Put plainly: Enzyme selectivity: inhibition of human tissue kallikrein (substrate S-2266). Particulars: for Selectivity: (Ki for Human Tissue Kallikrein)/(Ki for plasma kallikrein); for pKi: Human Tissue Kallikrein, substrate S-2266. The protocol:
as §1, with “Reac. 1986, 8, 185;” left out, “Pharmacol., 1992, 43, 1209;” left out, “[…] Determination of Enzyme Selectivity Selected compounds were further screened for inhibitory activity against other trypsin-like proteases following the method of Example 59 and using the appropriate enzyme and chromogenic substrate (Chromogenix AB). The selectivity is given by: Selectivity=(Ki for test enzyme)/(Ki for plasma kallikrein)” for “J., 1953, 55, 170).”

For the next test, the target named is Thrombin (Homo sapiens, UniProt P00734). The test is described as follows: Enzyme selectivity: inhibition of thrombin (substrate S-2238). The protocol: as §1
Determination of Enzyme Selectivity
Selected compounds were further screened for inhibitory activity against other trypsin-like proteases following the method of Example 59 and using the appropriate enzyme and chromogenic substrate (Chromogenix AB). The selectivity is given by: Selectivity=(Ki for test enzyme)/(Ki for plasma kallikrein)

Another test deals with Plasmin (Homo sapiens, UniProt P00747). Put plainly: Enzyme selectivity: inhibition of plasmin (substrate S-2390). The protocol: as §1, with “Reac. 1986, 8, 185;” left out, “Pharmacol., 1992, 43, 1209;” left out, “[…] Determination of Enzyme Selectivity Selected compounds were further screened for inhibitory activity against other trypsin-like proteases following the method of Example 59 and using the appropriate enzyme and chromogenic substrate (Chromogenix AB). The selectivity is given by: Selectivity=(Ki for test enzyme)/(Ki for plasma kallikrein)” for “J., 1953, 55, 170).”

A further test deals with T2, Trypsin (Bos taurus, UniProt P00760).
T2 sequence (P00760 24-246): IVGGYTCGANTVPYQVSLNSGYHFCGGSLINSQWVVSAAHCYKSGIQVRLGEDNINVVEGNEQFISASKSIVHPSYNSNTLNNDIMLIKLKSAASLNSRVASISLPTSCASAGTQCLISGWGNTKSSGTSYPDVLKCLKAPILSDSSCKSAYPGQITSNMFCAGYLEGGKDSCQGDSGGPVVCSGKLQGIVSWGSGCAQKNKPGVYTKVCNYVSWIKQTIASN
The test is described as follows: Enzyme selectivity: inhibition of trypsin (substrate S-2222). The method, then: as §1, with “Reac. 1986, 8, 185;” left out, “Pharmacol., 1992, 43, 1209;” left out, “[…] Determination of Enzyme Selectivity Selected compounds were further screened for inhibitory activity against other trypsin-like proteases following the method of Example 59 and using the appropriate enzyme and chromogenic substrate (Chromogenix AB). The selectivity is given by: Selectivity=(Ki for test enzyme)/(Ki for plasma kallikrein)” for “J., 1953, 55, 170).”

pKi: −log10 of the molar value. Structures can show the parent of a compound that is named as a salt.

T1 sequence (P03952 391-638 limits assumed): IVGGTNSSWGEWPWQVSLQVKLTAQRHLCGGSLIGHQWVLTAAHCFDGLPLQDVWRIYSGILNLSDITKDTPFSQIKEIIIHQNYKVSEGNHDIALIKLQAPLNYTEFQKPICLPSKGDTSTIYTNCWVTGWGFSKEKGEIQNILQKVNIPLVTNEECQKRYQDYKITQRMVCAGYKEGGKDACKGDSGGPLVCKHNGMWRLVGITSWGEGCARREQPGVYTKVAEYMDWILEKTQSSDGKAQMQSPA
T1 sequence (P03952 20-390 partner limits assumed): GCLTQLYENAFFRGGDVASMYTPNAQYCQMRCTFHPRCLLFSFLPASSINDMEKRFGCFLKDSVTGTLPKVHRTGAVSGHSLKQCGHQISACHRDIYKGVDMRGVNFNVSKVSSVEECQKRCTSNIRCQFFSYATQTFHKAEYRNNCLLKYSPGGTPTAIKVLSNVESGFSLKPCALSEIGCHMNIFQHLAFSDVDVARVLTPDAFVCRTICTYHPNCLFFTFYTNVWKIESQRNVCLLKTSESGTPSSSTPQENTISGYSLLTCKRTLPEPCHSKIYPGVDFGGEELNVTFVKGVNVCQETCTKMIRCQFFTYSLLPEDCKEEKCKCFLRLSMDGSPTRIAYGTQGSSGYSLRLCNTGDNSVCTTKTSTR
Chain of Human Tissue Kallikrein (P06870 25-262): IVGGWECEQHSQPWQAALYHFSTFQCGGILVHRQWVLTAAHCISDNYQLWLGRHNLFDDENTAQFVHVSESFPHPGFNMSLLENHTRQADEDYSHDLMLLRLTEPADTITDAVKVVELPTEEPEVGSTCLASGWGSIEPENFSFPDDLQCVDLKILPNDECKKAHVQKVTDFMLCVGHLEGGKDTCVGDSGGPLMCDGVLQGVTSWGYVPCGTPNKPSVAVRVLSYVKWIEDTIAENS
Chain of Plasmin (P00747 97-810): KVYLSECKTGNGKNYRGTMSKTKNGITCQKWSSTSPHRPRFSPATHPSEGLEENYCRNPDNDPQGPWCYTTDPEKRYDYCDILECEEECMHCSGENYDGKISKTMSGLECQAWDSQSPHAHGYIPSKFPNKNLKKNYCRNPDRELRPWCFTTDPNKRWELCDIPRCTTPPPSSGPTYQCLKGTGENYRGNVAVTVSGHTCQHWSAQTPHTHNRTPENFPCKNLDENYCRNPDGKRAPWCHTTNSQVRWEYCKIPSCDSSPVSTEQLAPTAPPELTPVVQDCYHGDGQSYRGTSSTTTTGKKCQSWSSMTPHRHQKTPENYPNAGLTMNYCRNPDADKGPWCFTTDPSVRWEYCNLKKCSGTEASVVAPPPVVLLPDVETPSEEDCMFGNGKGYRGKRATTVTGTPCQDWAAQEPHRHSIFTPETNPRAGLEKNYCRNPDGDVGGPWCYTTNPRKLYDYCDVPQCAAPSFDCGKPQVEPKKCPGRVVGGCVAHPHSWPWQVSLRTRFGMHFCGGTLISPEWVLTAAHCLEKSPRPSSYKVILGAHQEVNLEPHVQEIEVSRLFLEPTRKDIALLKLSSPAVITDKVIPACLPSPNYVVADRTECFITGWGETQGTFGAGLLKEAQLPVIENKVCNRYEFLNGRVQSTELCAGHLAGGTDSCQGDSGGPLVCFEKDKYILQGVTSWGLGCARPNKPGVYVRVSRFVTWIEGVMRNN

Take `CCOc1ccc(C[C@@H](N)C(=O)N[C@@H](Cc2ccccc2)C(=O)NC2CCN(C(=N)N)CC2)cc1.O=C(O)C(F)(F)F` [Example 1, (2′S,2″R)-4-(2′-(2″-Amino-3″-(4′″-ethoxyphenyl)propanoylamino)-3′-phenylpropanoyl-amino)piperidine-1-carboxamidine trifluoroacetate]: the negative logarithm of the Ki (pKi) on Human plasma kallikrein is 8.35. Besides, on Human Tissue Kallikrein, the Selectivity is 10,000 and the pKi is 4.35.

`COC(=O)CN[C@H](CC1CCCCC1)C(=O)N[C@@H](Cc1ccccc1)C(=O)NC1CCN(C(=N)N)CC1` [Example 2, (2′S,2″R)-4-(2′-(3″-Cyclohexyl-2″-(methyloxycarbonylmethylamino)propanoylamino)-3′-phenylpropanoylamino)piperidine-1-carboxamidine trifluoroacetate] gave a negative-log Ki (pKi) on Human plasma kallikrein of 7.18.

As to `N=C(N)N1CCC(NC(=O)[C@H](Cc2ccccc2)NC(=O)[C@@H](CC2CCCCC2)NCC(=O)O)CC1.O=C(O)C(F)(F)F` [Example 3, (2′S,2″R)-4-(2′-(2″-(Carboxymethylamino)-3″-cyclohexylpropanoylamino)-3′-phenyl-propanoylamino)piperidine-1-carboxamidine trifluoroacetate], the Selectivity on Thrombin ((Ki for Thrombin)/(Ki for plasma kallikrein)) is on record as 100; on Plasmin ((Ki for Plasmin)/(Ki for plasma kallikrein)) it was 1,000; on Human Tissue Kallikrein it was 2,000; on Trypsin ((Ki for Trypsin)/(Ki for plasma kallikrein)) it was 270. Also, the pKi is 6.51 on Thrombin (Thrombin, substrate S-2238); 5.49 at Plasmin (Plasmin, substrate S-2390); 8.52 on Human plasma kallikrein; 5.22 at Human Tissue Kallikrein; 6.08 on Trypsin (Trypsin, substrate S-2222).

For the compound `CCOc1ccc(C[C@@H](NC(=O)c2ccccc2)C(=O)N[C@@H](Cc2ccccc2)C(=O)NC2CCN(C(=N)N)CC2)cc1.O=C(O)C(F)(F)F` [Example 4, (2′S,2″R)-4-(2′-(2″-Benzoylamino-3″-(4′″-ethoxyphenyl)propanoylamino)-3′-phenyl-propanoylamino)piperidine-1-carboxamidine trifluoroacetate], the negative-log Ki (pKi) on Human plasma kallikrein was 8.85. At Human Tissue Kallikrein, the Selectivity was 13,000 and the pKi was 4.73.

Take `CCOc1ccc(C[C@@H](N)C(=O)N[C@H](C(=O)NC2CCN(C(=N)N)CC2)[C@H](O)c2ccccc2)cc1.O=C(O)C(F)(F)F` [Example 5, (2′S,2″R, 3′R)-4-(2′-(2″-Amino-3″-(4′″-ethoxyphenyl)propanoylamino)-3′-hydroxy-3′-phenyl-propanoylamino)piperidine-1-carboxamidine trifluoroacetate]: the negative-log Ki (pKi) on Human plasma kallikrein is 8.18. Moreover, on Human Tissue Kallikrein, the Selectivity is >10,000 and the pKi is below 4.15.

`CCOc1ccc(C[C@@H](N)C(=O)N[C@H](C(=O)NC2CCN(C(=N)N)CC2)[C@H](OC)c2ccccc2)cc1` [Example 6, (2′S,2″R,3′R)-4-(2′-(2″-Amino-3″-(4′″-ethoxyphenyl)propanoylamino)-3′-methoxy-3′-phenyl-propanoylamino)piperidine-1-carboxamidine trifluoroacetate] showed a negative logarithm of the Ki (pKi) on Human plasma kallikrein of 7.60.

At Human plasma kallikrein, `N=C(N)N1CCC(NC(=O)[C@H](Cc2ccccc2)NC(=O)[C@@H](CC2CCC3CCCCC3C2)NCC(=O)O)CC1` (some centres unmarked) [Example 14] showed a pKi of 8.59.

`COC(=O)CN[C@H](CC1CCC2CCCCC2C1)C(=O)N[C@@H](Cc1ccccc1)C(=O)NC1CCN(C(=N)N)CC1` (some centres unmarked) [Example 15] showed a pKi on Human plasma kallikrein of 7.72.

On to `N=C(N)N1CCC(NC(=O)[C@H](Cc2ccccc2)NC(=O)[C@H](N)Cc2ccc(OCc3ccccc3)cc2)CC1` [Example 32], for which, at Human plasma kallikrein, the pKi is 8.26.

In turn, `CCCOc1ccc(C[C@@H](N)C(=O)N[C@@H](Cc2ccccc2)C(=O)NC2CCN(C(=N)N)CC2)cc1` [Example 34] had a negative logarithm of the Ki (pKi) on Human plasma kallikrein of 8.15.

On to `CCOc1ccc(C[C@@H](NC)C(=O)N[C@@H](Cc2ccccc2)C(=O)NC2CCN(C(=N)N)CC2)cc1` [Example 39], for which the pKi at Human plasma kallikrein is 7.82. For the same compound, at Human Tissue Kallikrein, the Selectivity is reported as 930 and the pKi was 4.85.

In the case of `CCOc1ccc(C[C@@H](NS(C)(=O)=O)C(=O)N[C@@H](Cc2ccccc2)C(=O)NC2CCN(C(=N)N)CC2)cc1` [Example 40], the pKi at Human plasma kallikrein is 8.05. On Human Tissue Kallikrein, this compound gave a Selectivity of 210 and a negative logarithm of the Ki (pKi) of 5.71.

`CCOc1ccc(C[C@@H](NS(=O)(=O)c2ccccc2)C(=O)N[C@@H](Cc2ccccc2)C(=O)NC2CCN(C(=N)N)CC2)cc1` [Example 42] showed a pKi at Human plasma kallikrein of 8.35. On Human Tissue Kallikrein, the Selectivity is recorded as 1,500 and the pKi is 5.17.

For `CCOc1ccc(C[C@@H](NC(C)=O)C(=O)N[C@@H](Cc2ccccc2)C(=O)NC2CCN(C(=N)N)CC2)cc1` [Example 43], the negative-log Ki (pKi) at Human plasma kallikrein is 8.14. At Human Tissue Kallikrein, the Selectivity is recorded as 9,400 and the negative logarithm of the Ki (pKi) is 4.16.

As for `CCCC(=O)N[C@H](Cc1ccc(OCC)cc1)C(=O)N[C@@H](Cc1ccccc1)C(=O)NC1CCN(C(=N)N)CC1` [Example 44], on Human plasma kallikrein, the negative logarithm of the Ki (pKi) was 8.39.

For `CCOc1ccc(C[C@@H](NC(=O)CC)C(=O)N[C@@H](Cc2ccccc2)C(=O)NC2CCN(C(=N)N)CC2)cc1` [Example 45], on Human plasma kallikrein, the pKi is 8.52. Further, on Human Tissue Kallikrein, the Selectivity is 16,000 and the negative logarithm of the Ki (pKi) is 4.31.

As to `CCOc1ccc2c(c1)CN[C@@H](C(=O)N[C@@H](Cc1ccccc1)C(=O)NC1CCN(C(=N)N)CC1)C2` [Example 52], on Human plasma kallikrein, the pKi is 7.74.
